The text below walks through data of US20250009902A1, “ARTIFICIAL ENZYME-BACTERIA SYSTEM AND USES THEREOF” (NATIONAL UNIVERSITY OF SINGAPORE, priority 2021, published 2025).

The test system of data set [1] is HT-29 cells.
Procedure: (§1) For the protection of cells from H2O2 induced oxidative stress, different concentrations of BL@B-SA50 were cultured with HT-29 cells in the absence or presence of H2O2 (200 μM) for 24 hours. Relative cell viabilities were tested by the 3-(4,5-dimethylthiazol-2-yl)-2,5-diphenyltetrazolium bromide (MTT) assay.
(§2) The concentrations of nanomaterials in different measurements of MTT assays were 0.625 μg/mL while that for confocal microscopy and flow cytometry were both 2.5 μg/mL. The viabilities of HT-29 cells without treatment were defined as 100%, while the ROS content of HT-29 cells without treatment was defined as 1.
Data set [2] has as its system HT-29 cells. As to the kind of experiment: HT-29 cell viability, MTT assay, with or without H2O2. The settings on record: 200 μM H2O2, MTT; H2O2 alone approximately 20%; FIG. 4k. (In general: Tetrazolium assays rely on reduction of a dye to a coloured formazan, in cell work by metabolically active cells.)
Procedure: as §1, §2

Regarding Bifidobacterium longum [BL], the “relative cell viability of HT29 cells (cytotoxicity / growth)” value in data set [1] is on record as “could promote the growth of HT29”. Also, the “viability of HT29 cells exposed to H2O2” value in data set [2] is given as “also enhanced”.
